# How the values were obtained:
# Type in all cases: cell-based
# Actinomyces viscosus = assay: Phenotype microarray metabolic activity; details: A viscosus
# Experimental: (§1) The extent of metabolic activity of the tested bacteria in the presence of the above-mentioned saccharides after 24 hours and 48 hours was investigated through a high throughput phenotype microarray system (PM) for microbial cells (Biolog Inc.). Each PM can contain up to 95 different biochemical compounds (e.g. saccharides) that may act as substrates for bacteria as well as one negative control, not containing the substrates. Microarray plates were used in which the different wells of each plate were pre-loaded (by the manufacturer, Biolog Inc.) with different saccharides to be tested. Each bacterial species was tested using a separate microarray plate. Thus, a single bacterial species was tested with a variety of saccharides on each particular plate. The microarrays are based on redox technology, using cell respiration as a universal reporter. Active cell respiration results in the reduction of a tetrazolium dye and in the formation of a strong color—for example, when using the tetrazolium dye “Biolog Redox Dye Mix D”, the color changes from transparent/colorless to purple when the dye is reduced. The observation of this color change indicates which of the substrates improve the metabolic activity and health of the cells.
# (§2) Each bacterial species was collected from blood agar plates (incubated for 48 hours anaerobically at 37° C.) and transferred to an IF-0 Base inoculation fluid (Biolog Inc.), which is a nutritionally poor medium. The resulting cell suspension was adjusted to a transmittance of 42% (relative to the transmittance of the base inoculation fluid with no bacterial species present) at 492 nm using a BioRad SmartSpec 3000 Photometer (the adjustment being effected by adding either further inoculation fluid or further bacteria until the transmittance of 42% was achieved). A 1:5 dilution of this suspension was prepared by mixing 3 mL of the 42% transmittance cell suspension with 15 mL of an inoculation fluid (which inoculation fluid was formed by mixing 11.6 mL sterile water, 62.5 mL IF-0 base inoculation fluid and 0.9 mL of the tetrazolium dye “Biolog Redox Dye mix D”), resulting in a final cell density which was equal to 85% transmittance using a BioRad SmartSpec 3000 Photometer. For each of the saccharides tested, the microarray plate (obtained from the supplier (Biolog Inc.) with saccharides already present in the relevant wells in powder form) was directly inoculated with 100 μL/well of this 85% transmittance cell suspension.
# (§3) All plates were incubated in an anaerobic atmosphere at 37° C. Color changes were measured spectrophotometrically at 492 nm (Thermo Scientific Multiskan Ascent) at 24 hrs and 48 hrs using the same plate at both time points. […] After 24 hrs and 48 hrs under continuous shaking in a Multiscan microplate reader, the optical density (OD) of the synthetic medium at 24 hours and 48 hours was measured (using the microplate reader) at a wavelength of 492 nm for each combination of bacterium/saccharide, and for each of their respective controls (i.e. which contained the particular bacterium but no saccharide).
# (§4) The experiment was carried out three times for each combination of bacterium with saccharide, with each repeat being carried out on a different day (thus providing three biological replicas). The controls were also carried out three times, as above. The values shown are the average (mean) of the three single values obtained (as detailed above) for each combination of bacterium with saccharide, at 24 hrs and at 48 hrs.
# Actinomyces naeslundii = assay: Phenotype microarray metabolic activity; details: A naeslundii
# Experimental: as §1, §2, §3, §4
# Tannerella forsythia = assay: Phenotype microarray metabolic activity; details: T forsythia
# Experimental: as §1, §2, §3, §4
# Prevotella intermedia = assay: Phenotype microarray metabolic activity; details: P intermedia
# Experimental: as §1, §2, §3, §4
# Capnocytophaga sputigena = assay: Phenotype microarray metabolic activity; details: C sputigena
# Experimental: as §1, §2, §3, §4
# Streptococcus sobrinus = assay: Phenotype microarray metabolic activity; details: S sobrinus
# Experimental: as §1, §2, §3, §4
# Streptococcus salivarius = assay: Phenotype microarray metabolic activity; details: S salivarius
# Experimental: as §1, §2, §3, §4
# Fusobacterium nucleatum = assay: Phenotype microarray metabolic activity; details: F nucleatum
# Experimental: as §1, §2, §3, §4
# Streptococcus mitis = assay: Phenotype microarray metabolic activity; details: S mitis
# Experimental: as §1, §2, §3, §4
# Veillonella parvula = assay: Phenotype microarray metabolic activity; details: V parvula
# Experimental: as §1, §2, §3, §4
# Streptococcus mutans = assay: Phenotype microarray metabolic activity; details: S mutans
# Experimental: as §1, §2, §3, §4
# Streptococcus gordonii = assay: Phenotype microarray metabolic activity; details: S gordonii
# Experimental: as §1, §2, §3, §4
# [1] = system: Aggregatibacter actinomycetemcomitans; assay: Phenotype microarray metabolic activity; details: A actinomycetemcomitans
# Experimental: as §1, §2, §3, §4
# S sanguinis = assay: Phenotype microarray metabolic activity
# Experimental: as §1, §2, §3, §4
# Porphyromonas gingivalis = assay: Phenotype microarray metabolic activity; details: P gingivalis
# Experimental: as §1, §2, §3, §4
# [2] = system: beneficial oral bacteria and pathogenic oral bacteria; assay: Microarray screen, overall prebiotic assessment; details: 48 hrs
# Experimental: Substrates that were able to increase the metabolic activity of at least one of the above beneficial bacteria while not or only minimally increasing the growth of the pathogenic bacteria are considered to be prebiotic substrates.
# as §1, §2, §3, §4
# This value was selected in order to exclude low-stimulating metabolites and avoid false positive results.
structure (smiles),measurement,setting,value
"OC[C@H]1O[C@@](CO)(O[C@H]2O[C@H](CO)[C@@H](O)[C@H](O)[C@H]2O)[C@@H](O[C@H]2O[C@H](CO)[C@@H](O)[C@H](O)[C@H]2O)[C@@H]1O [D-Melezitose, (2R,3R,4S,5S,6R)-2-[[(2S,3S,4R,5R)-4-hydroxy-2,5-bis(hydroxymethyl)-3-[[(2R,3R,4S,5S,6R)-3,4,5-trihydroxy-6-(hydroxymethyl)-2-tetrahydropyranyl]oxy]-2-tetrahydrofuranyl]oxy]-6-(hydroxymethyl)tetrahydropyran-3,4,5-triol]",metabolic activity: OD 492 nm divided by OD of control (control = 1),Actinomyces viscosus; 24 hrs,1.7502
same,metabolic activity: OD 492 nm divided by OD of control (control = 1),Actinomyces viscosus; 48 hrs,2.9576
same,metabolic activity: OD 492 nm divided by OD of control (control = 1),Actinomyces naeslundii; 24 hrs,1.5398
same,metabolic activity: OD 492 nm divided by OD of control (control = 1),Actinomyces naeslundii; 48 hrs,2.0357
same,metabolic activity: OD 492 nm divided by OD of control (control = 1),Tannerella forsythia; 24 hrs,1.0374
same,metabolic activity: OD 492 nm divided by OD of control (control = 1),Tannerella forsythia; 48 hrs,0.9912
same,metabolic activity: OD 492 nm divided by OD of control (control = 1),Prevotella intermedia; 24 hrs,1.0189
same,metabolic activity: OD 492 nm divided by OD of control (control = 1),Prevotella intermedia; 48 hrs,0.9864
same,metabolic activity: OD 492 nm divided by OD of control (control = 1),Capnocytophaga sputigena; 24 hrs,0.5937
same,metabolic activity: OD 492 nm divided by OD of control (control = 1),Capnocytophaga sputigena; 48 hrs,0.9124
same,metabolic activity: OD 492 nm divided by OD of control (control = 1),Streptococcus sobrinus; 24 hrs,1.1016
same,metabolic activity: OD 492 nm divided by OD of control (control = 1),Streptococcus sobrinus; 48 hrs,1.0504
same,metabolic activity: OD 492 nm divided by OD of control (control = 1),Streptococcus salivarius; 24 hrs,1.0195
same,metabolic activity: OD 492 nm divided by OD of control (control = 1),Streptococcus salivarius; 48 hrs,0.9869
same,metabolic activity: OD 492 nm divided by OD of control (control = 1),Fusobacterium nucleatum; 24 hrs,0.9719
same,metabolic activity: OD 492 nm divided by OD of control (control = 1),Fusobacterium nucleatum; 48 hrs,0.8307
same,metabolic activity: OD 492 nm divided by OD of control (control = 1),Streptococcus mitis; 24 hrs,1.1736
same,metabolic activity: OD 492 nm divided by OD of control (control = 1),Streptococcus mitis; 48 hrs,1.0570
same,metabolic activity: OD 492 nm divided by OD of control (control = 1),Veillonella parvula; 24 hrs,0.9056
same,metabolic activity: OD 492 nm divided by OD of control (control = 1),Veillonella parvula; 48 hrs,0.7447
same,metabolic activity: OD 492 nm divided by OD of control (control = 1),Streptococcus mutans; 24 hrs,1.0420
same,metabolic activity: OD 492 nm divided by OD of control (control = 1),Streptococcus mutans; 48 hrs,0.9402
same,metabolic activity: OD 492 nm divided by OD of control (control = 1),Streptococcus gordonii; 24 hrs,1.0421
same,metabolic activity: OD 492 nm divided by OD of control (control = 1),Streptococcus gordonii; 48 hrs,0.9733
same,metabolic activity: OD 492 nm divided by OD of control (control = 1),[1]; 24 hrs,0.8425
same,metabolic activity: OD 492 nm divided by OD of control (control = 1),[1]; 48 hrs,0.7710
same,metabolic activity: OD 492 nm divided by OD of control (control = 1),S sanguinis; 24 hrs,1.0227
same,metabolic activity: OD 492 nm divided by OD of control (control = 1),S sanguinis; 48 hrs,1.0532
same,metabolic activity: OD 492 nm divided by OD of control (control = 1),Porphyromonas gingivalis; 24 hrs,0.7783
same,metabolic activity: OD 492 nm divided by OD of control (control = 1),Porphyromonas gingivalis; 48 hrs,0.7811
same,"prebiotic effects (metabolic activity, threshold value 2)",[2],exhibited prebiotic effects

# Reference: patent publication US11419806B2, “Prebiotic oral care methods using a saccharide” (Colgate-Palmolive Company, priority 2013, dated 2022)
